Measured values reported in US7659277B2, “Ubiquitin ligase inhibitors and methods related thereto” (Proteologies, Ltd., priority 2003, dated 2010).

Key:
Hmdm2 = Hmdm2 (Homo sapiens, UniProt Q00987); test: Selectivity (% A in 1 μM), ubiquitin ligase activity of Hmdm2; assay type: biochemical; conditions: read-out: Selectivity (% A* in 1 μM) Hmdm2
POSH = biological target: T1, POSH (Homo sapiens, UniProt Q7Z6J0); test: IC50 assay procedure: GST-POSH auto-ubiquitination, homogeneous time-resolved fluorescence (Ub-cryptate / anti-GST XL665); assay type: biochemical; conditions: ubiquitin ligase activity of POSH; GST-POSH 33 nM, 30 min preincubation
T1 construct: GST-POSH lot NB81/p.118 3.6 mg/ml; fused on or other part: GST tag, used for detection with anti-GST XL665
T1 sequence (Q7Z6J0 1-269 limits assumed): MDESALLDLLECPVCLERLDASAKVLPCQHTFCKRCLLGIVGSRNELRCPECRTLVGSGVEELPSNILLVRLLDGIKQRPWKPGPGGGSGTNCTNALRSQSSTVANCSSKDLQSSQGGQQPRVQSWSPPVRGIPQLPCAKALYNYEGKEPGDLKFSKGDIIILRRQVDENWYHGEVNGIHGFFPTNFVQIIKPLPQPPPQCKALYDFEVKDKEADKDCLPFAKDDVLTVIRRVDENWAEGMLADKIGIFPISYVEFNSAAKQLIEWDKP
How it was run: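 GST-POSH (33 nM) preincubated 30 min at RT with compounds (DMSO dilution series), then added to E1/E2/Eu-cryptate-ubiquitin enzyme mix for 30 min at 37 °C. Stopped with EDTA, anti-GST XL665 added 45 min at RT; HTRF signal of POSH auto-ubiquitination read, triplicates, IC50 from concentration series.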

HIV-1 = test: HIV maturation (budding) in virus-like particle assay, HIV-1 p24 antigen ELISA; assay type: cell-based; conditions: Human immunodeficiency virus 1, read-out: Budding (3 μM)
Description: Compounds were further assessed for effects on maturation of HIV particles in a virus-like particle assay.

Chain of Hmdm2 (Q00987 whole entry): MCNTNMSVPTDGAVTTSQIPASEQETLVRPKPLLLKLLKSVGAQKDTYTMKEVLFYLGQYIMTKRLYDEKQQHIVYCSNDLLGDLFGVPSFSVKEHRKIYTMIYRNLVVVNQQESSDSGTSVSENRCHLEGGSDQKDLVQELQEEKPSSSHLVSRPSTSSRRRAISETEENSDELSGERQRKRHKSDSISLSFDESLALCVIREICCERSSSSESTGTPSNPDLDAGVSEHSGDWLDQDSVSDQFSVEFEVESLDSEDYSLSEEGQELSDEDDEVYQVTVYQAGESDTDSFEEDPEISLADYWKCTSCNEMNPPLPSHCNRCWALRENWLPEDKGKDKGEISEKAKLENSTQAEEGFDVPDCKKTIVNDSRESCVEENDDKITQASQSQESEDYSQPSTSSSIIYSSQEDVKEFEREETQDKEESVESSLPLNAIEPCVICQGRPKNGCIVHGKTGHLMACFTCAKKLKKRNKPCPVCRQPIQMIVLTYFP

Row | Structure (SMILES) | remaining activity at 1 µM (Hmdm2) [%] | IC50 (POSH) [nM] | activity at 3 µM (HIV-1) [%]
1 | Cc1ccc(/N=C/c2cc(Br)cc(Br)c2O)c(C)c1 [Compound 54] | 124 | 500 | 54
2 | COc1ccc(/C=N/c2ccc(Nc3ccccc3)cc2)c2ccccc12 [Compound 55] | 58 | 500 | 55
3 | Cc1ccc(/N=C/c2cccc(O)c2O)cc1C [Compound 56] | 73 | 300 | 59
4 | OCc1cccc(/N=C/c2cccc(O)c2O)c1 [Compound 57] | 80 | 300 | 61
5 | CC(C)(C)c1ccc(O)c(/N=C/C=C/c2cccc([N+](=O)[O-])c2)c1 [Compound 59] | 112 | 500 | 61
6 | Cc1cc([N+](=O)[O-])ccc1/N=C/c1ccc[nH]1 [Compound 70] | 125 | 600 | 57
7 | Cc1c(C(=O)/C=C/c2ccccc2)c2cc(O)ccc2n1C [Compound 75] | 113 | 400 | 39
8 | Cc1c(C(=O)/C=C/c2cccs2)c2cc(O)ccc2n1C [Compound 76] | 110 | 400 | 48
9 | O=[N+]([O-])c1ccc(CN2CCN(c3cccc(Cl)c3)CC2)o1 [Compound 80] | 95 | 500 | 55
10 | CCCCOc1ccc(NC(=S)N2CCn3c4c(c(=O)c5cc(C)ccc53)CCC42)cc1 (stereo not drawn) [Compound 81] | 73 | 100 | 63
11 | O=c1nc(-c2ccc(Br)cc2)cc(-c2ccc([N+](=O)[O-])cc2)[nH]1 [Compound 84] | 102 | 300 | 47
12 | C=CCN1C(=O)/C(=C/c2c3ccccc3cc3ccccc23)SC1=S [Compound 109] | 106 | 500 | 60
13 | CN(C)c1ccc(/C=C2\SC(=S)N(C3CCS(=O)(=O)C3)C2=O)cc1 (stereo not drawn) [Compound 110] | 51 | 600 | 36
14 | COc1ccc(NC(=O)c2cc3cccc(N)c3cc2O)cc1 [Compound 114] | 85 | 300 | 46
15 | CN1C(=O)/C(=C\c2ccc(-c3cccc([N+](=O)[O-])c3)o2)SC1=S [Compound 115] | 108 | 600 | 48
